Results as given in patent publication US20230295096A1, “PYRAZOLE CARBOXAMIDE COMPOUNDS FOR TREATMENT OF HBV” (ASSEMBLY BIOSCIENCES, INC., priority 2020, published 2023).
Where two headings read alike, the source gives them in different places.

System: HBV
Assay: Viral load production from HepAD38 cells, qPCR of the HBV core sequence in supernatant
Format: cell-based
Details: HepAD38 cells, 5 days, HBV DNA in supernatant by qPCR
Method: HepAD38 cells grown in a T-150 flask (Corning, cat#: 430825) with Growth Medium (DMEM/F12 (1:1) (Hyclone, cat#: SH30023.02), 1X Pen/Strep (Invitrogen, cat#: 15140-122), 10% FBS (Tissue Culture Biologics, cat#: 101), 250 µg/mL G418 (Alfa Aesar, cat#: J62671), 1 µg/mL Tetracycline (Teknova, cat#: T3320)) were detached with 0.25% trypsin-EDTA (Invitrogen, cat#: 25200-056). Tetracycline-free treatment medium (15 mL DMEM/F12 (1:1) 1× Pen/step, with 2% FBS, Tet-system approved (Clontech, cat#: 631106) were then added to mix, transferred into a 50 ml conical tube (Falcon, cat#: 21008-918,) and spun at 1300 rpm for 5 min. Pelleted cells were then re-suspended/washed with 50 mL of 1X DPBS (Invitrogen, cat#: 14190-136) 2 times and 50 mL treatment medium twice. HepAD38 cells were then re-suspended with 10 mL of treatment medium, syringed and counted. Wells of 96-well clear bottom TC plate (Corning, cat#: 3904,) were seeded at 50.000 cells/well in 180 µL of treatment medium, and 20 µL of either 10% DMSO (Sigma, cat#: D4540) as controls or a 10X solution of test compounds in 10% DMSO in treatment media was added for a final compound concentration starting at 10 µM, and plates were incubated in 5% CO2 incubator at 37° C. for 5 days.
Subsequently viral load production was assayed by quantitative PCR (qPCR) of the HBV core sequence. PCR reaction mixture containing forward primers HBV-f 5′-CTGTGCCTTGGGTGGCTTT-3′ (IDT DNA), Reverse primers HBV-r 5′-[…]-3′ (IDT DNA), Fluorescent TaqMan^tm Probes HBV-probe 5′-FAM/AGCTCCAAA/ZEN/[…]/3IABkFQ-3′ (IDT DNA), 10 µL/well of PerfeCTa® qPCR ToughMix® (Quanta Biosciences, Cat#: 95114-05 K), and 6 µL/well of DEPC water (Alfa Aesar, cat#: J62087) was prepared. Four µL of supernatant was added to 16 µL of the reaction mixture in a qPCR plate (Applied Biosytems, Cat#: 4309849), sealed with a film (Applied Biosystems, Cat#: 4311971), centrifuged for a few seconds, and subsequently run on an Applied Biosystems VIIA7. The PCR mixture was incubated at 45° C. for 5 min, then 95° C. for 10 min, followed by 40 cycles of 10 seconds at 95° C. and 20 seconds at 60° C. Viral load was quantified against known HBV DNA standards by using ViiA™ 7 Software. Viral load in the supernatant from wells with treated cells were compared against viral load in supernatant from DMSO control wells (≥ 3 per plate). Cell viability assay was performed with CellTiter-Glo Luminescent Cell Viability Assay (Promega, cat#: G7573) with modification. Mixed appropriate amount of CellTiter-Glo (CTG) 1X DPBS in a 1:1 ratio, added 100 uL of the mixture to each well followed completely removal of all supernatant in each well without touching cell surface. Incubated the plate at room temperature for 10 min on an orbital shaker, and then read the plate with a plate reader (TECAN M1000 or Envision). EC50 or CC50 values were calculated through curve-fitting of the four-parameter nonlinear-logistic-regression model (GraphPad Prism or Dotmatics). CC50 values were all >10 µM.

[1] = Table 1 ranges, read-out: Activity (viral load lowering EC50)
[2] = Hepatitis B virus, HePAD38, 120 h, Table 1 ranges, read-out: Activity (viral load lowering EC50)
[3] = Hepatitis B virus, HePAD38, 120 h, Table 2 ranges, read-out: VL HepAD38 EC50 range
[4] = Table 2 ranges, read-out: VL HepAD38 EC50 range

“3-Amino-N-(3-chloro-4-fluorophenyl)-5-(5-hydroxy-5-(1-methyl-1H-imidazol-4-yl)octahydropentalen-2-yl)-2λ^2-pyrazole-4-carboxamide [Example 20]” was tested, and the EC50 [1] was < 10 nM.
`Cn1nc(C2CC3CC(CNC(=O)C(C)(C)O)CC3C2)c(C(=O)Nc2ccc(F)c(Cl)c2)c1N` (single isomer, unassigned) [Example 39, 5-Amino-N-(3-chloro-4-fluorophenyl)-3-(5-((2-hydroxy-2-methylpropanamido)methyl)octahydropentalen-2-yl)-1-methyl-1H-pyrazole-4-carboxamide] was tested, and the EC50 [2] was < 10 nM.
For `Cn1nc(C2CC3CC(CNC(=O)C4CC4)CC3C2)c(C(=O)Nc2ccc(F)c(Cl)c2)c1N` (single isomer, unassigned) [Example 40, 5-Amino-N-(3-chloro-4-fluorophenyl)-3-(5-(cyclopropanecarboxamidomethyl)octahydropentalen-2-yl)-1-methyl-1H-pyrazole-4-carboxamide], the EC50 [2] was < 10 nM.
In the case of `CN(C)C(=O)NCC1CC2CC(c3nn(C)c(N)c3C(=O)Nc3ccc(F)c(Cl)c3)CC2C1` (single isomer, unassigned) [Example 41, 5-Amino-N-(3-chloro-4-fluorophenyl)-3-(5-((3,3-dimethylureido)methyl)octahydropentalen-2-yl)-1-methyl-1H-pyrazole-4-carboxamide], the EC50 [2] is reported as < 10 nM.
For `Cn1nc(C2CC3CC(CNC(=O)C4CC4)CC3C2)c(C(=O)Nc2ccc(F)c(Cl)c2)c1N` (single isomer, unassigned) [Example 42, 5-Amino-N-(3-chloro-4-fluorophenyl)-3-(5-(cyclopropanecarboxamidomethyl)octahydropentalen-2-yl)-1-methyl-1H-pyrazole-4-carboxamide], the EC50 [1] was < 10 nM.
For `CN(C)C(=O)NCC1CC2CC(c3nn(C)c(N)c3C(=O)Nc3ccc(F)c(Cl)c3)CC2C1` (single isomer, unassigned) [Example 43, 5-Amino-N-(3-chloro-4-fluorophenyl)-3-(5-((3,3-dimethylureido)methyl)octahydropentalen-2-yl)-1-methyl-1H-pyrazole-4-carboxamide], the EC50 [1] was < 10 nM.
In the case of `Cn1nc(C2CC3CC(CNC(=O)C(C)(C)O)CC3C2)c(C(=O)Nc2ccc(F)c(Cl)c2)c1N` (single isomer, unassigned) [Example 44, 5-Amino-N-(3-chloro-4-fluorophenyl)-3-(5-((2-hydroxy-2-methylpropanamido)methyl)octahydropentalen-2-yl)-1-methyl-1H-pyrazole-4-carboxamide], the EC50 [1] is reported as < 10 nM.
With `C[C@@H](NC(=O)C1CC2CC(c3nn(C)c(N)c3C(=O)Nc3ccc(F)c(Cl)c3)CC2C1)C(F)(F)F` (single isomer, unassigned) [Example 101] the EC50 [2] was 10 to 50 nM.
With `C[C@@H](NC(=O)C1CC2CC(c3nn(C)c(N)c3C(=O)Nc3ccc(F)c(Cl)c3)CC2C1)C(F)(F)F` (single isomer, unassigned) [Example 102] the EC50 [1] was 10 to 50 nM.
In the case of `C[C@H](NC(=O)C1CC2CC(c3nn(C)c(N)c3C(=O)Nc3ccc(F)c(Cl)c3)CC2C1)C(F)(F)F` (single isomer, unassigned) [Example 103], the EC50 [2] is reported as 10 to 50 nM.
`CC(NC(=O)N1CC2CC(c3nn(C)c(N)c3C(=O)Nc3ccc(F)c(Cl)c3)CC2C1)C(F)(F)F` (single isomer, unassigned) [Example 128, 5-(5-Amino-4-((3-chloro-4-fluorophenyl)carbamoyl)-1-methyl-1H-pyrazol-3-yl)-N-(1,1,1-trifluoropropan-2-yl)hexahydrocyclopenta[c]pyrrole-2(1H)-carboxamide] was tested, and the EC50 [2] was 50 to 500 nM.
Molecule `CC(NC(=O)N1CC2CC(c3nn(C)c(N)c3C(=O)Nc3ccc(F)c(Cl)c3)CC2C1)C(F)(F)F` (single isomer, unassigned) [Example 129, 5-(5-Amino-4-((3-chloro-4-fluorophenyl)carbamoyl)-1-methyl-1H-pyrazol-3-yl)-N-(1,1,1-trifluoropropan-2-yl)hexahydrocyclopenta[c]pyrrole-2(1H)-carboxamide] has an EC50 [1] of 50 to 500 nM.
`Cn1nc(C2CC3CC(O)C(c4ccccc4)C3C2)c(C(=O)Nc2ccc(F)c(Cl)c2)c1N` (single isomer, unassigned) [Example 141, 5-Amino-N-(3-chloro-4-fluorophenyl)-3-(5-hydroxy-4-phenyloctahydropentalen-2-yl)-1-methyl-1H-pyrazole-4-carboxamide] was tested, and the EC50 [3] was < 100 nM.
With `Cn1nc(C2CC3CC(O)C(c4ccccc4)C3C2)c(C(=O)Nc2ccc(F)c(Cl)c2)c1N` (single isomer, unassigned) [Example 142, 5-Amino-N-(3-chloro-4-fluorophenyl)-3-(5-hydroxy-4-phenyloctahydropentalen-2-yl)-1-methyl-1H-pyrazole-4-carboxamide] the EC50 [4] was < 100 nM.
`Cn1nc(C2CC3CC(c4ccccc4)C(O)C3C2)c(C(=O)Nc2ccc(F)c(Cl)c2)c1N` (single isomer, unassigned) [Example 143, 5-Amino-N-(3-chloro-4-fluorophenyl)-3-(4-hydroxy-5-phenyloctahydropentalen-2-yl)-1-methyl-1H-pyrazole-4-carboxamide] was tested, and the EC50 [4] was < 100 nM.
In the case of `Cn1nc(C2CC3CC(c4ccccc4)C(O)C3C2)c(C(=O)Nc2ccc(F)c(Cl)c2)c1N` (single isomer, unassigned) [Example 144, 5-Amino-N-(3-chloro-4-fluorophenyl)-3-(4-hydroxy-5-phenyloctahydropentalen-2-yl)-1-methyl-1H-pyrazole-4-carboxamide], the EC50 [4] is reported as < 100 nM.
`Cn1nc(C2CC3CC(c4ccccc4)C(O)C3C2)c(C(=O)Nc2ccc(F)c(Cl)c2)c1N` (single isomer, unassigned) [Example 145, 5-Amino-N-(3-chloro-4-fluorophenyl)-3-(4-hydroxy-5-phenyloctahydropentalen-2-yl)-1-methyl-1H-pyrazole-4-carboxamide] was tested, and the EC50 [3] was < 100 nM.
Molecule `Cn1nc(C2CC3CC(O)(CNc4ncc(C(F)F)cn4)CC3C2)c(C(=O)Nc2ccc(F)c(Cl)c2)c1N` (single isomer, unassigned) [Example 202A] has an EC50 [1] of 10 to 50 nM.
`Cn1nc(C2CC3CC(O)(CNc4ncc(C(F)F)cn4)CC3C2)c(C(=O)Nc2ccc(F)c(Cl)c2)c1N` (single isomer, unassigned) [Example 202B] was tested, and the EC50 [1] was 50 to 500 nM.
In the case of `Cn1nc(C(F)(F)F)cc1NCC1(O)CC2CC(c3nn(C)c(N)c3C(=O)Nc3ccc(F)c(Cl)c3)CC2C1` (single isomer, unassigned) [Example 203A], the EC50 [2] is reported as < 10 nM.
`Cn1nc(C(F)(F)F)cc1NCC1(O)CC2CC(c3nn(C)c(N)c3C(=O)Nc3ccc(F)c(Cl)c3)CC2C1` (single isomer, unassigned) [Example 203B] was tested, and the EC50 [1] was 10 to 50 nM.
In the case of `Cn1nc(C2CC3CC(O)(CNc4cc(N)ncn4)CC3C2)c(C(=O)Nc2ccc(F)c(Cl)c2)c1N` (single isomer, unassigned) [Example 205A], the EC50 [1] is reported as < 10 nM.
`Cn1nc(C2CC3CC(O)(CNc4cc(N)ncn4)CC3C2)c(C(=O)Nc2ccc(F)c(Cl)c2)c1N` (single isomer, unassigned) [Example 205B] gave an EC50 [1] of 50 to 500 nM.
In the case of `Cn1nc([N+](=O)[O-])cc1C1(O)CC2CC(c3nn(C)c(N)c3C(=O)Nc3ccc(F)c(Cl)c3)CC2C1` [Compd. 4-2, 5-amino-N-(3-chloro-4-fluorophenyl)-3-((2 s,3aR,5r,6aS)-5-hydroxy-5-(1-methyl-3-nitro-1H-pyrazol-5-yl)octahydropentalen-2-yl)-1-methyl-1H-pyrazole-4-carboxamide], the EC50 [2] is reported as < 10 nM.
